# Read-outs that look alike come from different tables or passages of the source.
# Target: T1, Syk (Homo sapiens, UniProt P43405)
# T1 construct: purchased Carna Biosciences
# Assay: Syk HTRF assay
# Assay type: biochemical
# In short: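 Read-out is the 665 nm/615 nm time-resolved fluorescence ratio after EDTA stop and Eu-anti-phosphotyrosine plus streptavidin-DyLight 647 detection. Reaction ran 1 h at room temperature with start mix of 87.5 μM ATP and 80 nM substrate peptide in pH 7.6 HEPES/MgCl2 buffer.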
# [1] = read-out: Activity Level (Syk HTRF assay IC50)
# [2] = activity levels A-D, read-out: Activity Level (IC50 in the Syk HTRF assay)
# [3] = IC50 activity level, read-out: Activity Level
SMILES,IC50 [1],IC50 [3],also measured
"CC1CN(Cc2cccc3nc(Nc4ccc(C(F)(F)F)cc4)nn23)CC(=O)N1 (stereo not shown) [Example 282, 6-methyl-4-((2-(4-(trifluoromethyl)phenylamino)-[1,2,4]triazolo[1,5-a]pyridin-5-yl)methyl)piperazin-2-one]",–,–,IC50 [2]: 1000 to 10000 nM
"Oc1cc(Nc2nc3cccc(N[C@H]4CC[C@@H](O)CC4)n3n2)ccn1 [Example 331, cis-4-(5-(4-hydroxycyclohexylamino)-[1,2,4]triazolo[1,5-a]pyridin-2-ylamino)pyridin-2-ol]",–,–,IC50 [2]: 1000 to 10000 nM
"Cc1cc(Nc2nc3cccc(NC4CCOCC4)n3n2)cc2c1cnn2C [Example 148, N^2-(1,4-dimethyl-1H-indazol-6-yl)-N^5-(tetrahydro-2H-pyran-4-yl)-[1,2,4]triazolo[1,5-a]pyridin-2,5-diamine]",0.005 to 250 nM,–,–
"Cc1n[nH]c2ncc(Nc3nc4cccc(N[C@H]5CC[C@@H](O)CC5)n4n3)cc12 [Example 541, cis-4-(2-(3-methyl-1H-pyrazolo[3,4-b]pyridin-5-ylamino)-[1,2,4]triazolo[1,5-a]pyridin-5-ylamino)cyclohexanol]",–,0.005 to 250 nM,–
"c1cc(NC2CCCNC2)n2nc(Nc3ccc4cn[nH]c4c3)nc2c1 (stereo in doubt) [Example 464, (S)-N^2-(1H-indazol-6-yl)-N^5-(piperidin-3-yl)-[1,2,4]triazolo[1,5-a]pyridine-2,5-diamine]",–,0.005 to 250 nM,–
"CNC(=O)c1cccc(Nc2nc3cccc(N[C@H]4CC[C@@H](O)CC4)n3n2)c1 [Example 316, cis-3-(5-(4-hydroxycyclohexylamino)-[1,2,4]triazolo[1,5-a]pyridin-2-ylamino)-N-methylbenzamide]",–,–,IC50 [2]: 250 to 500 nM
"Fc1ccc(Nc2nc3cccc(NC4CCCCNC4)n3n2)cc1 (stereo not shown) [Example 427, N^5-(azepan-3-yl)-N^2-(4-fluorophenyl)-[1,2,4]triazolo[1,5-a]pyridine-2,5-diamine]",–,250 to 500 nM,–
"CC(CN)Cc1cccc2nc(Nc3ccccc3)nn12 (stereo in doubt) [Example 459, (S)-5-(3-amino-2-methylpropyl)-N-phenyl-[1,2,4]triazolo[1,5-a]pyridin-2-amine]",–,1000 to 10000 nM,–
"CNC(=O)c1ccc(Nc2nc3cccc(N4CCCCC4)n3n2)cc1 [Example 247, N-methyl-4-(5-(piperidin-1-yl)-[1,2,4]triazolo[1,5-a]pyridin-2-ylamino)benzamide]",–,–,IC50 [2]: 500 to 1000 nM
"Cc1n[nH]c2cc(Nc3nc4cccc(CNCC(N)=O)n4n3)ccc12 [Example 186, 2-((2-(3-methyl-1H-indazol-6-ylamino)-[1,2,4]triazolo[1,5-a]pyridin-5-yl)methylamino)acetamide]",0.005 to 250 nM,–,–
"CC1CNC(=O)CN1Cc1cccc2nc(Nc3ccc(C(F)(F)F)cc3)nn12 (stereo not shown) [Example 258, 5-methyl-4-((2-(4-(trifluoromethyl)phenylamino)-[1,2,4]triazolo[1,5-a]pyridin-5-yl)methyl)piperazin-2-one]",–,–,IC50 [2]: 500 to 1000 nM
"CC1(C)C(=O)Nc2cc(Nc3nc4cccc(CC5CCNCC5)n4n3)ccc21 [Example 138, 3,3-dimethyl-6-(5-(piperidin-4-ylmethyl)-[1,2,4]triazolo[1,5-a]pyridin-2-ylamino)indolin-2-one]",0.005 to 250 nM,–,–
"CC(C)n1ncc2ccc(Nc3nc4cccc(CN5CCNC(=O)C5)n4n3)cc21 [Example 188, 4-((2-(1-isopropyl-1H-indazol-6-ylamino)-[1,2,4]triazolo[1,5-a]pyridin-5-yl)methyl)piperazin-2-one]",0.005 to 250 nM,–,–
"OC(Cc1cccc2nc(Nc3ccc(F)cc3)nn12)C1CCNCC1 (stereo not shown) [Example 425, 2-(2-(4-fluorophenylamino)-[1,2,4]triazolo[1,5-a]pyridin-5-yl)-1-(piperidin-4-yl)ethanol]",–,1000 to 10000 nM,–
"Cc1ccc(Nc2nc3cccc(N[C@H]4CC[C@@H](O)CC4)n3n2)cc1 [Example 343, cis-4-(2-(p-tolylamino)-[1,2,4]triazolo[1,5-a]pyridin-5-ylamino)cyclohexanol]",–,–,IC50 [2]: 0.005 to 250 nM
"COc1ccc(Nc2nc3cccc(-c4ccc5nc(CO)[nH]c5c4)n3n2)cn1 [Example 280, (6-(2-(6-methoxypyridin-3-ylamino)-[1,2,4]triazolo[1,5-a]pyridin-5-yl)-1H-benzo[d]imidazol-2-yl)methanol]",–,–,IC50 [2]: 250 to 500 nM
"Cc1cc(C)cc(Nc2nc3cccc(N[C@H]4CC[C@@H](O)CC4)n3n2)c1 [Example 314, cis-4-(2-(3,5-dimethylphenylamino)-[1,2,4]triazolo[1,5-a]pyridin-5-ylamino0)cyclohexaol]",–,–,IC50 [2]: 0.005 to 250 nM
"c1ccc(Nc2nc3cccc(Nc4ccccn4)n3n2)cc1 [Example 484, N^2-phenyl-N^5-(pyridin-2-yl)-[1,2,4]triazolo[1,5-a]pyridin-2,5-diamine]",–,500 to 1000 nM,–

# The next lines start with results.
IC50 [1],IC50 [3],SMILES,also measured
0.005 to 250 nM,–,"CN(C)Cc1nc2ccc(Nc3nc4cccc(-c5cccc(F)c5)n4n3)cc2[nH]1 [compound 1, N-(2-((dimethylamino)methyl)-1H-benzo[d]imidazol-6-yl)-5-(3-fluorophenyl)-[1,2,4]triazolo[1,5-a]pyridin-2-amine]",–
0.005 to 250 nM,–,"O=C(O)c1ccc(Nc2nc3cccc(-c4cccc(O)c4)n3n2)cc1 [compound 25, 4-(5-(3-hydroxyphenyl)-[1,2,4]triazolo[1,5-a]pyridin-2-ylamino)benzoic acid]",–
0.005 to 250 nM,–,"Cn1nnc2ccc(Nc3nc4cccc(-c5cccc(O)c5)n4n3)cc21 [compound 28, 3-(2-(1-methyl-1H-benzo[d][1,2,3]triazol-6-ylamino)-[1,2,4]triazolo[1,5-a]pyridin-5-yl)phenol]",–
–,0.005 to 250 nM,"O[C@H]1CC[C@@H](Nc2cccc3nc(Nc4ccc(-c5nc[nH]n5)cc4)nn23)CC1 [Example 567, cis-4-(2-(4-(1H-1,2,4-triazol-3-yl)phenylamino)-[1,2,4]triazolo[1,5-a]pyrridin-5-ylamino)cyclohexanol]",–
–,0.005 to 250 nM,"Cc1n[nH]c2cc(Nc3nc4cccc(CC(C)CO)n4n3)ccc12 (stereo in doubt) [Example 555, (S)-2-methyl-3-(2-(3-methyl-1H-indazol-6-ylamino)-[1,2,4]triazolo[1,5-a]pyridin-5-yl)propan-1-ol]",–
–,0.005 to 250 nM,"Cn1ncc2cc(Nc3nc4cccc(NC5CCOCC5)n4n3)ccc21 [Example 551, N^2-(1-methyl-1H-indazol-5-yl)-N^5-(tetrahydro-2H-pyran-4-yl)-[1,2,4]triazolo[1,5-a]pyridine-2,5-diamine]",–
250 to 500 nM,–,"CC1(C)NC(=O)c2cc(Nc3nc4cccc(N[C@H]5CC[C@@H](O)CC5)n4n3)ccc21 [compound 120, cis-6-(5-(4-hydroxycyclohexylamino)-[1,2,4]triazolo[1,5-a]pyridin-2-ylamino)-3,3-dimethylisoindolin-1-one]",–
–,500 to 1000 nM,"Cc1cc(Nc2nc3cccc(NC4CCOCC4)n3n2)cnc1N1CCOCC1 [Example 547, N^2-(5-methyl-6-morpholinopyridin-3-yl)-N^5-(tetrahydro-2H-pyran-4-yl)-[1,2,4]triazolo[1,5-a]pyrridine-2,5-diamine]",–
–,0.005 to 250 nM,"O[C@H]1CC[C@@H](Nc2cccc3nc(Nc4cnc5cn[nH]c5c4)nn23)CC1 [Example 553, cis-4-(2-(1H-pyrazolo-[4,3-b]pyridin-6-ylamino)-[1,2,4]triazolo[1,5-a]pyridin-5-ylamino)cyclohexanol]",–
500 to 1000 nM,–,"Fc1cccc(-c2cccc3nc(Nc4ccccc4)nn23)c1 [compound 81, 5-(3-fluorophenyl)-N-phenyl-[1,2,4]triazolo[1,5-a]pyridin-2-amine]",–

# — patent US8299056B2 (Signal Pharmaceuticals, LLC, priority 2008, dated 2012)
